Measurements published in US9365522B2, “Pyrazole amide derivative” (AMGEN INC., priority 2015, dated 2016).

Target: T1, ligand binding domain of human ROR gamma (Homo sapiens, UniProt P51449)
T1 construct: NM_001001523; expressed in transfected cells; host or cells: HEK293T
T1 sequence (P51449 247-497 isoform P51449-2): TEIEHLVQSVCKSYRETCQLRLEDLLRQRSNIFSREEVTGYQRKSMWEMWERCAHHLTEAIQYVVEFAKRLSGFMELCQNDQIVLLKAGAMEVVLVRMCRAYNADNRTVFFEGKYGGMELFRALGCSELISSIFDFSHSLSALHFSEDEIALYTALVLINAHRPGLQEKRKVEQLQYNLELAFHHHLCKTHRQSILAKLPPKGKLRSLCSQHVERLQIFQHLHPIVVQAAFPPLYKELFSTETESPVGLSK
Assay: ROR gamma reporter gene assay (GAL4-RORγ LBD luciferase, Dual-Glo)
Format: cell-based
Details: HEK293T cells transfected with pM-ROR gamma, 8 concentrations 3.5 nM to 10.5 μM, 24 h incubation; for IC50: read-out: result (pIC50, inhibition of RORγ transcriptional activity) (converted)
Outline: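 Transient GAL4-RORγ LBD (aa 247-497) / 5×UAS-luc / pRL-CMV cotransfection in HEK293T, charcoal-stripped 10% FBS. 8-pt dose, 3.5 nM–10.5 μM, 0.075% DMSO final. 24 h, 37 °C, 5% CO2. Dual-Glo firefly/renilla readout; pIC50 from curve fit.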

Compound	IC50 [pM]	result (pIC50, inhibition of RORγ transcriptional activity)
Cc1ccc(N)c(C(=O)CN(Cc2cc(F)cc(F)c2)C(=O)c2cnn([C@H]3CC[C@H](C(=O)O)CC3)c2C(F)(F)F)c1 [Example 143, trans-4-(4-((2-(2-amino-5-methylphenyl)-2-oxoethyl)-((3,5-difluorophenyl)methyl)carbamoyl)-5-(trifluoromethyl)pyrazol-1-yl)cyclohexane-1-carboxylic acid]	2.24e+06	–
O=C(CN(Cc1ccoc1)C(=O)c1cnn([C@H]2CC[C@H](C(=O)O)CC2)c1C(F)(F)F)c1c(Cl)cncc1Cl [Example 47, trans-4-(4-((2-(3,5-dichloropyridin-4-yl)-2-oxoethyl)(furan-3-ylmethyl)carbamoyl)-5-(trifluoromethyl)-1H-pyrazol-1-yl)cyclohexanecarboxylic acid]	102000	–
CC1(CN(CC(=O)c2c(Cl)cncc2Cl)C(=O)c2cnn([C@H]3CC[C@H](C(=O)O)CC3)c2C(F)(F)F)CC1 [Example 31, trans-4-(4-((2-(3,5-dichloropyridin-4-yl)-2-oxoethyl)((1-methylcyclopropyl)methyl)carbamoyl)-5-(trifluorornethyl)-1H-pyrazol-1-yl)cyclohexanecarboxylic acid]	77600	–
CC1(C)[C@@H]2C[C@H](N(C[C@H](O)c3sccc3Cl)C(=O)c3cnn([C@H]4CC[C@](C)(C(=O)O)CC4)c3C(F)(F)F)C[C@@H]21 [Example 396, trans-4-(4-((2-(3-chlorothiophen-2-yl)-2-hydroxyethyl)((1R,3r,5S)-6,6-dimethylbicyclo[3.1.0]hexan-3-yl)carbamoyl)-5-(trifluoromethyl)-1H-pyrazol-1-yl)-1-methylcyclohexanecarboxylic acid]	891000	–
O=C(CN(Cc1cncnc1)C(=O)c1cnn([C@H]2CC[C@H](C(=O)O)CC2)c1C(F)(F)F)c1c(Cl)cccc1Cl [Example 146, trans-4-(4-((2-(2,6-dichlorophenyl)-2-oxoethyl)-(pyrimidin-5-ylmethyl)carbamoyl)-5-(trifluoromethyl)pyrazol-1-yl)cyclohexane-1-carboxylic acid]	148000	–
CC(C)CCN(CC(=O)c1c(Cl)cncc1Cl)C(=O)c1cnn([C@H]2CC[C@H](C(=O)O)CC2)c1C(F)(F)F [Example 32, trans-4-(4-((2-(3,5-dichloropyridin-4-yl)-2-oxoethyl)(isopentyl)carbamoyl)-5-(trifluorornethyl)-1H-pyrazol-1-yl)cyclohexanecarboxylic acid]	81300	–
O=C(CN(Cc1ccc(F)cc1)C(=O)c1cnn(C23CCC(C(=O)O)(CC2)C3)c1C(F)(F)F)c1c(Cl)cncc1Cl [Example 177, 4-(4-((2-(3,5-dichloropyridin-4-yl)-2-oxoethyl)-((4-fluorophenyl)methyl)carbamoyl)-5-(trifluoromethyl)pyrazol-1-yl)bicyclo[2.2.1]heptane-1-carboxylic acid]	141000	–
trans-4-(4-((2-(3-chloro-5-fluoropyridin-4-yl)- 2-oxoethyl)-(2,2-dimethylbutyl)carbamoyl)-5- (trifluoromethyl)pyrazol-1-yl)-1- methylcyclohexane-1-carboxylic acid [Example 337]	–	7.20
CC1(C)CCCC(N(CC(=O)c2c(Cl)cncc2Cl)C(=O)c2cnn([C@H]3CC[C@H](C(=O)O)CC3)c2C(F)(F)F)C1 (stereo partly drawn) [Example 205, trans-4-(4-((2-(3,5-dichloropyridin-4-yl)-2-oxoethyl)-(3,3-dimethylcyclohexyl)carbamoyl)-5-(trifluoromethyl)pyrazol-1-yl)cyclohexane-1-carboxylic acid]	138000	–
CC(C)(C)CN(CC(=O)c1c(Cl)cncc1Cl)C(=O)c1cnn([C@H]2CC[C@H](C(=O)O)CC2)c1C(F)(F)F [Example 27, trans-4-(4-((2-(3,5-dichloropyridin-4-yl)-2-oxoethyl)(neopentyl)carbamoyl)-5-(trifluoromethyl)-1H-pyrazol-1-yl)cyclohexanecarboxylic acid]	56200	–
CC(C)(C)[C@H]1C[C@@H](N(CC(=O)c2c(Cl)cncc2Cl)C(=O)c2cnn([C@H]3CC[C@H](C(=O)O)CC3)c2C(F)(F)F)C1 [Example 131, trans-4-(4-((3-tert-butylcyclobutyl)-(2-(3,5-dichloropyridin-4-yl)-2-oxoethyl)carbamoyl)-5-(trifluoromethyl)pyrazol-1-yl)cyclohexane-1-carboxylic acid]	83200	–
CC(CN(C(=O)c1cnn([C@H]2CC[C@](C)(C(=O)O)CC2)c1C(F)(F)F)[C@H]1C[C@@H]2[C@H](C1)C2(C)C)c1c[nH]c2cccc(Cl)c12 (stereo partly drawn) [Example 377, trans-4-(4-((2-(4-chloro-1H-indol-3-yl)propyl)((1R,3r,5S)-6,6-dimethylbicyclo[3.1.0]hexan-3-yl)carbamoyl)-5-(trifluoromethyl)-1H-pyrazol-1-yl)-1-methylcyclohexanecarboxylic acid]	437000	–
CC(C)(C)O[C@H]1C[C@@H](N(CC(=O)c2c(Cl)cncc2Cl)C(=O)c2cnn([C@H]3CC[C@H](C(=O)O)CC3)c2C(F)(F)F)C1 [Example 155, trans-4-(4-((2-(3,5-dichloropyridin-4-yl)-2-oxoethyl)-(3-((2-methylpropan-2-yl)oxy)cyclobutyl)carbamoyl)-5-(trifluoromethyl)pyrazol-1-yl)cyclohexane-1-carboxylic acid]	5.13e+06	–
COC(CN(Cc1cc(F)cc(F)c1)C(=O)c1cnn([C@H]2CC[C@H](C(=O)O)CC2)c1C(F)(F)F)c1c(Cl)cncc1Cl (stereo partly drawn) [Example 109, trans-4-(4-((2-(3,5-dichloropyridin-4-yl)-2-methoxyethyl)-((3,5-difluorophenyl)methyl)carbamoyl)-5-(trifluoromethyl)pyrazol-1-yl)cyclohexane-1-carboxylic acid]	631000	–
O=C(CN(CCC1CC1)C(=O)c1cnn([C@H]2CC[C@H](C(=O)O)CC2)c1C(F)(F)F)c1c(Cl)cncc1Cl [Example 34, trans-4-(4-((2-cyclopropylethyl)(2-(3,5-dichloropyridin-4-yl)-2-oxoethyl)carbamoyl)-5-(trifluoromethyl)-1H-pyrazol-1-yl)cyclohexanecarboxyic acid]	1.35e+06	–
Cc1coc(C)c1C(=O)CN(Cc1cc(F)cc(F)c1)C(=O)c1cnn([C@H]2CC[C@H](C(=O)O)CC2)c1C(F)(F)F [Example 63, trans-4-(4-((3,5-difluorobenzyl)(2-(2,4-dimethylfuran-3-yl)-2-oxoethyl)carbamoyl)-5-(trifluoromethyl)-1H-pyrazol-1-yl)cyclohexanecarboxylic acid]	3.39e+06	–
O=C(CN(Cc1ccco1)C(=O)c1cnn([C@H]2CC[C@H](C(=O)O)CC2)c1C(F)(F)F)c1c(Cl)cncc1Cl [Example 46, trans-4-(4-((2-(3,5-dichloropyridin-4-yl)-2-oxoethyl)(furan-2-ylmethyl)carbamoyl)-5-(trifluoromethyl)-1H-pyrazol-1-yl)cyclohexanecarboxylic acid]	398000	–
C[C@]1(C(=O)O)CC[C@@H](n2ncc(C(=O)N(CC(=O)c3c(Cl)cncc3Cl)Cc3ccc(F)cc3)c2C(F)(F)F)CC1 [Example 79, trans-4-(4-((2-(3,5-dichloropyridin-4-yl)-2-oxoethyl)(4-fluorobenzyl)carbamoyl)-5-(trifluoromethyl)-1H-pyrazol-1-yl)-1-methylcyclohexanecarboxylic acid]	209000	–
O=C(CN(Cc1ccc(F)cc1)C(=O)c1cnn([C@H]2CC[C@H](C(=O)O)CC2)c1C(F)(F)F)c1c(Cl)cc[nH]c1=O [Example 195, trans-4-(4-((2-(4-chloro-2-oxo-1H-pyridin-3-yl)-2-oxoethyl)-((4-fluorophenyl)methyl)carbamoyl)-5-(trifluoromethyl)pyrazol-1-yl)cyclohexane-1-carboxylic acid]	> 1e+07	–
CC(C)(C)c1c(C(=O)N(CC(=O)c2c(Cl)cncc2Cl)Cc2cc(F)cc(F)c2)cnn1[C@H]1CC[C@H](C(=O)O)CC1 [Example 148, trans-4-(5-tert-butyl-4-((2-(3,5-dichloropyridin-4-yl)-2-oxoethyl)-((3,5-difluorophenyl)methyl)carbamoyl)pyrazol-1-yl)cyclohexane-1-carboxylic acid]	479000	–
Cc1[nH]c2cccc(Cl)c2c1CCN(CC(C)(C)C)C(=O)c1cnn([C@H]2CC[C@](C)(C(=O)O)CC2)c1C(F)(F)F [Example 360, trans-4-(4-(2-(4-chloro-2-methyl-1H-indol-3-yl)ethyl-(2,2-dimethylpropyl)carbamoyl)-5-(trifluoromethyl)pyrazol-1-yl)-1-methylcyclohexane-1-carboxylic acid]	178000	–
